US9980943B2, “Methods of treating muscular dystrophy” (BOARD OF REGENTS OF THE NEVADA SYSTEM OF HIGHER EDUCATION, …, priority 2013, dated 2018)

Assays:
Assay type in all cases: cell-based, mouse
[1] = test system: α7 integrin (LacZ reporter in α7βgal+/− myoblasts); experiment: Myoblast α7+/LacZ integrin FDG assay (Burkin assay in myoblasts, 96-well); details: 96-well; for Burkin Assay in Myoblasts, signal relative to DMSO: α7+/LacZ myoblasts; for Burkin Assay in Myoblasts, value relative to DMSO: SU9516 analogs, N=3-6
[2] = test system: α7 integrin (LacZ reporter in α7+/LacZ myotubes); experiment: Myotube α7 integrin FDG assay (Burkin assay in myotubes, 96-well); details: for Burkin Assay in Myotubes, value relative to DMSO: SU9516 analogs, 96-well, N=3-6
[3] = test system: β-galactosidase in CMV-LacZ C2C12 myoblasts; experiment: CMV-LacZ secondary screen in C2C12 myoblasts (β-Gal stabilizing assay); details: for CMV-LACZ in Myoblasts (β-galactosidase activity relative to DMSO): CMV-LacZ C2C12 myoblasts; for CMV-LACZ in Myoblasts, value relative to DMSO: SU9516 analogs, C2C12 CMV-LacZ, N=2
Procedure, shortened: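 β-Gal level was the read-out, measured in a clonal C2C12 line expressing LacZ from a CMV promoter. Dose-response curves used six concentrations, 0.5 μM up to 40 μM, with duplicate points.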

[4] = test system: β-galactosidase in CMV-LacZ C2C12 myotubes; experiment: CMV-LacZ secondary screen in C2C12 myotubes (β-Gal stabilizing assay); details: for CMV-LACZ in Myotubes, signal relative to DMSO: C2C12 CMV-LacZ myotubes, fold relative to DMSO; for CMV-LACZ in Myotubes, value relative to DMSO: SU9516 analogs, C2C12 CMV-LacZ, N=2
Procedure, shortened: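 A secondary screen identifies compounds that stabilize β-gal independently of the native promoter, using CMV-LacZ C2C12 cells. Curves span 0.5–40 μM at six levels, in duplicate.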

Compound: O=C(O)c1csc(-c2cccs2)n1 [MLS000760876-01]
- Burkin Assay in Myoblasts, signal relative to DMSO ([1]; 0.5 uM): 1.0287
- Burkin Assay in Myoblasts, signal relative to DMSO ([1]; 1 uM): 0.9856
- Burkin Assay in Myoblasts, signal relative to DMSO ([1]; 5 uM): 1.812
- Burkin Assay in Myoblasts, signal relative to DMSO ([1]; 10 uM): 0.9113
- Burkin Assay in Myoblasts, signal relative to DMSO ([1]; 20 uM): 1.102
- Burkin Assay in Myoblasts, signal relative to DMSO ([1]; 40 uM): 0.9504
- Burkin Assay in Myotubes, α7 integrin LacZ reporter signal relative to DMSO ([2]; 0.5 uM): 1.2427
- Burkin Assay in Myotubes, α7 integrin LacZ reporter signal relative to DMSO ([2]; 1 uM): 1.256
- Burkin Assay in Myotubes, α7 integrin LacZ reporter signal relative to DMSO ([2]; 5 uM): 1.249
- Burkin Assay in Myotubes, α7 integrin LacZ reporter signal relative to DMSO ([2]; 10 uM): 0.9755
- Burkin Assay in Myotubes, α7 integrin LacZ reporter signal relative to DMSO ([2]; 20 uM): 0.8634
- Burkin Assay in Myotubes, α7 integrin LacZ reporter signal relative to DMSO ([2]; 40 uM): 0.8993
- CMV-LACZ in Myoblasts (β-galactosidase activity relative to DMSO) ([3]; 0.5 uM): 0.9069
- CMV-LACZ in Myoblasts (β-galactosidase activity relative to DMSO) ([3]; 1 uM): 1.0546
- CMV-LACZ in Myoblasts (β-galactosidase activity relative to DMSO) ([3]; 5 uM): 0.8293
- CMV-LACZ in Myoblasts (β-galactosidase activity relative to DMSO) ([3]; 10 uM): 0.8973
- CMV-LACZ in Myoblasts (β-galactosidase activity relative to DMSO) ([3]; 20 uM): 0.9396
- CMV-LACZ in Myoblasts (β-galactosidase activity relative to DMSO) ([3]; 40 uM): 0.8504
- CMV-LACZ in Myotubes, signal relative to DMSO ([4]; 0.5 uM): 1.0248
- CMV-LACZ in Myotubes, signal relative to DMSO ([4]; 1 uM): 1.1010
- CMV-LACZ in Myotubes, signal relative to DMSO ([4]; 5 uM): 1.1074
- CMV-LACZ in Myotubes, signal relative to DMSO ([4]; 10 uM): 0.9789
- CMV-LACZ in Myotubes, signal relative to DMSO ([4]; 20 uM): 0.9482
- CMV-LACZ in Myotubes, signal relative to DMSO ([4]; 40 uM): 1.2565

Compound: COc1ccc2c(c1)C(=C(C#N)C#N)C(=O)N2CCc1ccccc1 [MLS000763074-01]
- Burkin Assay in Myoblasts, value relative to DMSO ([1]; 0.5 uM): 1.199
- Burkin Assay in Myoblasts, value relative to DMSO ([1]; 1 uM): 1.067
- Burkin Assay in Myoblasts, value relative to DMSO ([1]; 5 uM): 0.843
- Burkin Assay in Myoblasts, value relative to DMSO ([1]; 10 uM): 1.134
- Burkin Assay in Myoblasts, value relative to DMSO ([1]; 20 uM): 0.6586
- Burkin Assay in Myoblasts, value relative to DMSO ([1]; 40 uM): 0.6085
- Burkin Assay in Myotubes, value relative to DMSO ([2]; 0.5 uM): 1.0274
- Burkin Assay in Myotubes, value relative to DMSO ([2]; 1 uM): 1.128
- Burkin Assay in Myotubes, value relative to DMSO ([2]; 5 uM): 1.043
- Burkin Assay in Myotubes, value relative to DMSO ([2]; 10 uM): 0.907
- Burkin Assay in Myotubes, value relative to DMSO ([2]; 20 uM): 0.1921
- Burkin Assay in Myotubes, value relative to DMSO ([2]; 40 uM): 0.2622
- CMV-LACZ in Myoblasts, value relative to DMSO ([3]; 0.5 uM): 0.8431
- CMV-LACZ in Myoblasts, value relative to DMSO ([3]; 1 uM): 0.8256
- CMV-LACZ in Myoblasts, value relative to DMSO ([3]; 5 uM): 1.1447
- CMV-LACZ in Myoblasts, value relative to DMSO ([3]; 10 uM): 1.1966
- CMV-LACZ in Myoblasts, value relative to DMSO ([3]; 20 uM): 1.2981
- CMV-LACZ in Myoblasts, value relative to DMSO ([3]; 40 uM): 1.6644
- CMV-LACZ in Myotubes, value relative to DMSO ([4]; 0.5 uM): 1.0089
- CMV-LACZ in Myotubes, value relative to DMSO ([4]; 1 uM): 0.8593
- CMV-LACZ in Myotubes, value relative to DMSO ([4]; 5 uM): 1.0487
- CMV-LACZ in Myotubes, value relative to DMSO ([4]; 10 uM): 0.9645
- CMV-LACZ in Myotubes, value relative to DMSO ([4]; 20 uM): 1.7671
- CMV-LACZ in Myotubes, value relative to DMSO ([4]; 40 uM): 1.9682
